Legend:
Assay type in all cases: cell-based
hFP = molecular target: T1, hFP (Homo sapiens, UniProt P43088); assay: FLIPR calcium signal, HEK-293(EBNA) cells expressing hFP; details: recombinant human FP receptor, read-out: FUNCTIONAL DATA EC50 HFP
T1 construct: expressed in transfected cells; host or cells: HEK-293(EBNA)
Description: (§1) Methods for FLIPR™ Studies
(§2) HEK-293(EBNA) cells, stably expressing one type or subtype of recombinant human prostaglandin receptors (prostaglandin receptors expressed: hDP/Gqs5; hEP1; hEP2/Gqs5; hEP3A/Gqi5; hEP4/Gqs5; hFP; hIP; hTP), were cultured in 100 mm culture dishes in high-glucose DMEM medium containing 10% fetal bovine serum, 2 mM 1-glutamine, 250 μg/ml geneticin (G418) and 200 μg/ml hygromycin B as selection markers, and 100 units/ml penicillin G, 100 μg/ml streptomycin and 0.25 μg/ml amphotericin B.
(§3) (b) Calcium Signal Studies on the FLIPR™
(§4) Cells were seeded at a density of 5×10^4 cells per well in Biocoat® Poly-D-lysine-coated black-wall, clear-bottom 96-well plates (Becton-Dickinson) and allowed to attach overnight in an incubator at 37° C. Cells were then washed two times with HBSS-HEPES buffer (Hanks Balanced Salt Solution without bicarbonate and phenol red, 20 mM HEPES, pH 7.4) using a Denley Cellwash plate washer (Labsystems). After 45 minutes of dye-loading in the dark, using the calcium-sensitive dye Fluo-4 AM at a final concentration of 2 μM, plates were washed four times with HBSS-HEPES buffer to remove excess dye leaving 100 μl in each well. Plates were re-equilibrated to 37° C. for a few minutes.
(§5) Cells were excited with an Argon laser at 488 nm, and emission was measured through a 510-570 nm bandwidth emission filter (FLIPR™, Molecular Devices, Sunnyvale, Calif.). Drug solution was added in a 50 μl volume to each well to give the desired final concentration. The peak increase in fluorescence intensity was recorded for each well. On each plate, four wells each served as negative (HBSS-HEPES buffer) and positive controls (standard agonists: BW245C (hDP); PGE2 (hEP1; hEP2/Gqs5; hEP3A/Gqi5; hEP4/Gqs5); PGF2α (hFP); carbacyclin (hIP); U-46619 (hTP), depending on receptor). The peak fluorescence change in each drug-containing well was then expressed relative to the controls.
Compounds were tested in a high-throughput (HTS) or concentration-response (CoRe) format. In the HTS format, forty-four compounds per plate were examined in duplicates at a concentration of 10^−5 M. To generate concentration-response curves, four compounds per plate were tested in duplicates in a concentration range between 10^−5 and 10^−11 M. The duplicate values were averaged. In either, HTS or CoRe format each compound was tested on at least 3 separate plates using cells from different passages to give an n≧3.

hTP = molecular target: T2, hTP (Homo sapiens, UniProt P21731); assay: FLIPR calcium signal, HEK-293(EBNA) cells expressing hTP; details: recombinant human TP receptor, read-out: FUNCTIONAL DATA EC50 HTP
T2 construct: expressed in transfected cells; host or cells: HEK-293(EBNA)
T2 sequence (P21731 1-343): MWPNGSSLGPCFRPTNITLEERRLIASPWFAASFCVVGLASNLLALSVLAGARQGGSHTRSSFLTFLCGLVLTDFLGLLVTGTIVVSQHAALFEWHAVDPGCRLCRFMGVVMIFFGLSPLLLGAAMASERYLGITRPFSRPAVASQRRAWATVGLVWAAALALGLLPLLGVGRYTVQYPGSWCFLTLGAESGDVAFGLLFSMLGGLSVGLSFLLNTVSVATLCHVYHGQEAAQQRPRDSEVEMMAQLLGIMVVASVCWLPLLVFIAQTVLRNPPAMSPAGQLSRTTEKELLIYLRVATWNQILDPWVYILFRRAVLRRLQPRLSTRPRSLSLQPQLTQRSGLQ
Description: as §1, §2, §3, §4, §5
(§6) Compounds were tested in a high-throughput (HTS) or concentration-response (CoRe) format. […]

hEP3A/Gqi5 = molecular target: T3, hEP3A/Gqi5 (Homo sapiens, UniProt P43115); assay: FLIPR calcium signal, HEK-293(EBNA) cells expressing hEP3A/Gqi5; details: recombinant human EP3A/Gqi5, HEK-293(EBNA), read-out: FUNCTIONAL DATA EC50 HEP3A
T3 construct: expressed in transfected cells; host or cells: HEK-293(EBNA)
T3 sequence (P43115 1-390): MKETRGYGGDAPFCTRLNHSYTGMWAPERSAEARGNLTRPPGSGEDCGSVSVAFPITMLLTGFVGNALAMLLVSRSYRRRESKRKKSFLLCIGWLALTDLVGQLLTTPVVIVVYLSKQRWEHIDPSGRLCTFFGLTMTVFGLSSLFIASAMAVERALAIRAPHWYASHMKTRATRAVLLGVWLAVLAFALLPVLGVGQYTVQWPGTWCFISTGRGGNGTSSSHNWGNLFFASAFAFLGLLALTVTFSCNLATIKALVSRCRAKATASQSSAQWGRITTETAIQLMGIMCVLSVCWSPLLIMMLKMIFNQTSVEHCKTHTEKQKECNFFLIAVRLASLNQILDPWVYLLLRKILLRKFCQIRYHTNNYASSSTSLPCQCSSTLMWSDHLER
Description: as §1, §2, §3, §4, §5, §6

T1 sequence (P43088 whole entry): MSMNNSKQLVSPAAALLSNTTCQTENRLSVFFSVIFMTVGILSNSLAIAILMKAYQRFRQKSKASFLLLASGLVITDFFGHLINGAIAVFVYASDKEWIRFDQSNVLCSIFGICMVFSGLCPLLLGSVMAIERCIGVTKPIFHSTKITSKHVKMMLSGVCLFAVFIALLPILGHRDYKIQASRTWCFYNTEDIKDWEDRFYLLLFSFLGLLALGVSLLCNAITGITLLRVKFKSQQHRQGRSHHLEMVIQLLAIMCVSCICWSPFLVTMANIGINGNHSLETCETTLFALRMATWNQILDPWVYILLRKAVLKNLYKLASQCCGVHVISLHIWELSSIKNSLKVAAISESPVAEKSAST

SMILES	EC50 (hFP)	EC50 (hTP)	EC50 (hEP3A/Gqi5)
Cc1sc(CC[C@H](O)/C=C/[C@H]2[C@H](C)CC(O)[C@@H]2C/C=C\CCCC(=O)O)cc1Br (single isomer, unassigned)	43 nM		
C=C[C@@H]1CC(O)[C@H](C/C=C\CCCC(=O)O)[C@H]1/C=C/[C@@H](O)CCc1cc(Br)c(C)s1 (single isomer, unassigned) [drawing 47]	61 nM	243 nM	304 nM
C=C[C@@H]1CC(O)[C@H](C/C=C\CCCC(=O)O)[C@H]1/C=C/[C@@H](O)CCc1cc(Br)c(C)s1 (single isomer, unassigned) [drawing 48]	1530 nM		554 nM
C=C[C@@H]1CC(O)[C@H](C/C=C\CCCC(=O)OC)[C@H]1/C=C/[C@@H](O)CCc1cc(Br)c(C)s1 (single isomer, unassigned) [drawing 49]	742 nM	1810 nM	6010 nM
C=C[C@@H]1CC(O)[C@H](C/C=C\CCCC(=O)OC)[C@H]1/C=C/[C@@H](O)CCc1cc(Br)c(C)s1 (single isomer, unassigned) [drawing 51]	> 10000 nM	> 10000 nM	

Reference: patent US8168680B2, “Cyclopentane heptan(ENE)OIC acid, 2-heteroarylalkenyl derivatives as therapeutic agents” (Allergan, Inc., priority 2004, dated 2012)
